Results on 20 molecules are retold here after patent US10442788B2, “Hepatitis B antiviral agents” (ENANTA PHARMACEUTICALS, INC., priority 2015, dated 2019).

The nature of series [1]: Compound toxicity, ATPLite total ATP levels. To be noted: human, HepAD38 cells; 15,000 cells/well, three days after compound addition; 50% reduction of total ATP levels relative to no drug controls. The format is cell-based. A digest of the protocol:
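HepAD38 cells, washed free of tetracycline, seeded at 15,000 cells/well and given compound (DMSO stock diluted 1:200) for 3 days. Total ATP read by ATPLite; CC50 is the concentration cutting ATP by 50% versus no-drug controls, reported as ranges A>30 μM, B 10-30 μM, C<10 μM.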
On the technique in general: ATP-based viability assays read luminescence as a measure of living cells.

The subject of series [2] is HBV. The series can be described thus: HepAD38 antiviral assay: reduction of viral product accumulation (virion DNA by qPCR, HBsAg or HBeAg by ELISA). In kind it is cell-based. Particulars: Hepatitis B virus, 120 h; HepAD38 cells, five days after compound addition; 50% reduction of viral product accumulation relative to no drug controls; read-out: HepAD38 EC50. An outline of the steps: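 Tetracycline-washed HepAD38 cells treated with compound (DMSO diluted 1:200) for 5 days, or 8 days with media and compound refreshed on d2 and d5. Virion DNA from lysates quantified by qPCR; HBsAg or HBeAg by ELISA. EC50 is the concentration giving 50% reduction versus no-drug controls, reported as ranges A<1 μM, B 1-10 μM, C>10 μM.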
In general terms: Quantitative PCR measures a nucleic acid by following its amplification.

The structures appear in SMILES notation.

What is called CC50 is the concentration at which the toxic effect on the cells reaches its halfway point. One may read the EC50 as the concentration giving half of the maximal effect. In turn, `COC(=O)C(C)NS(=O)(=O)c1cc(-c2nc(-c3ccc(Br)c(F)c3)c[nH]2)ccc1Cl` (stereo not shown) [Example 128] had a CC50 at 3 days in series [1] above 30 µM. Moreover, the EC50 in series [2] is above 10000 nM.
The matching figures for `CC(CO)N(C)S(=O)(=O)c1cc(-c2nc(-c3ccc(Br)c(F)c3)c[nH]2)ccc1Cl` (stereo not shown) [Example 129]: below 10 µM and below 1000 nM.
The matching figures for `O=S(=O)(c1cc(-c2nc(-c3ccc(Br)c(F)c3)c[nH]2)ccc1Cl)N1CCN(c2ccccn2)CC1` [Example 130]: above 30 µM and below 1000 nM.
The matching figures for `O=S(=O)(c1cc(-c2nc(-c3cc(F)c(Br)c(F)c3)c[nH]2)ccc1Cl)N1CCC(O)CC1` [Example 131]: above 30 µM and below 1000 nM.
Take `O=S(=O)(c1cc(-c2nc(-c3ccc(Br)c(F)c3)c[nH]2)ccc1Cl)N1CCCCC(O)C1` (stereo not shown) [Example 132]: in series [1], the CC50 at 3 days is above 30 µM. Moreover, the EC50 in series [2] is below 1000 nM.
For `O=S(=O)(c1cc(-c2nc(-c3ccc(Br)c(F)c3)c[nH]2)ccc1Cl)N1CCC(O)(CO)CC1` [Example 133], in that order: above 30 µM and below 1000 nM.
With `CC(O)C(C)(C)NS(=O)(=O)c1cc(-c2nc(-c3ccc(Br)c(F)c3)c[nH]2)ccc1Cl` (stereo not shown) [Example 134], the CC50 at 3 days in series [1] is above 30 µM. In series [2], the EC50 was below 1000 nM.
Consider `O=S(=O)(c1cc(-c2nc(-c3ccc(Br)c(Br)c3)c[nH]2)ccc1Cl)N1CCC(O)CC1` [Example 135], for which the CC50 at 3 days in series [1] is above 30 µM. The EC50 in series [2] is below 1000 nM.
Take `O=S(=O)(c1cc(-c2nc(-c3cccc(C4CC4)c3)c[nH]2)ccc1Cl)N1CCC(O)CC1` [Example 136]: in series [1], the CC50 at 3 days was above 30 µM. The EC50 in series [2] lay within 1000 to 10000 nM.
The matching figures for `O=S(=O)(c1cc(-c2nc(-c3ccc(Br)c(F)c3)c[nH]2)ccc1Cl)N1CCCC(O)CC1` (stereo not shown) [Example 137]: above 30 µM and below 1000 nM.
With `CC(C)(C)OC(=O)NCCCNS(=O)(=O)c1cc(-c2nc(-c3ccc(Br)c(F)c3)c[nH]2)ccc1Cl` [Example 138], the CC50 at 3 days in series [1] is above 30 µM. Also, the EC50 in series [2] was below 1000 nM.
The matching figures for `COC(=O)NCCCNS(=O)(=O)c1cc(-c2nc(-c3ccc(Br)c(F)c3)c[nH]2)ccc1Cl` [Example 139]: above 30 µM and below 1000 nM.
For `CC(C)OC(=O)NCCCNS(=O)(=O)c1cc(-c2nc(-c3ccc(Br)c(F)c3)c[nH]2)ccc1Cl` [Example 140], in that order: above 30 µM and below 1000 nM.
The matching figures for `CC(C)(C)OC(=O)N1CCN(S(=O)(=O)c2cc(-c3nc(-c4ccc(Br)c(F)c4)c[nH]3)ccc2Cl)CC1` [Example 142]: below 10 µM and 1000 to 10000 nM.
In the case of `COC(=O)N1CCN(S(=O)(=O)c2cc(-c3nc(-c4ccc(Br)c(F)c4)c[nH]3)ccc2Cl)CC1` [Example 143], the CC50 at 3 days in series [1] is above 30 µM. Further, the EC50 in series [2] was below 1000 nM.
The matching figures for `CN1CCN(S(=O)(=O)c2cc(-c3nc(-c4ccc(Br)c(F)c4)c[nH]3)ccc2Cl)CC1` [Example 144]: above 30 µM and below 1000 nM.
The matching figures for `O=S(=O)(c1cc(-c2nc(-c3ccc(Br)c(F)c3)c[nH]2)ccc1Cl)N1CCN(CCO)CC1` [Example 145]: above 30 µM and below 1000 nM.
The matching figures for `CC(C)(C)OC(=O)NCCNS(=O)(=O)c1cc(-c2nc(-c3ccc(Br)c(F)c3)c[nH]2)ccc1Cl` [Example 146]: above 30 µM and below 1000 nM.
`CCOC(=O)NCCCNS(=O)(=O)c1cc(-c2nc(-c3ccc(Br)c(F)c3)c[nH]2)ccc1Cl` [Example 147] registered a cytotoxic concentration (CC50) at 3 days in series [1] above 30 µM. For the same molecule, the EC50 in series [2] is below 1000 nM.
For `N#Cc1cc(-c2c[nH]c(-c3ccc(Cl)c(S(=O)(=O)N4CCC(O)CC4)c3)n2)ccc1Cl` [Example 148], in that order: above 30 µM and below 1000 nM.
